Measurements taken from paper PMC10959927, “Platinum iodido drugs show potential anti-tumor activity, affecting cancer cell metabolism and inducing ROS and senescence in gastrointestinal cancer cells” (Communications Biology, 2024).
Several values for one entry are separate records, joined by “and”; a condition that tells them apart may be missing. Equal values may be shown once.

Columns and labels:
MKN45 cells [1] = assay: SA-β-Gal activity, CellEvent Senescence Green flow cytometry;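 note: IC50 concentration of each compound relative to untreated control set as 1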; format: cell-based, human; settings: Fig. 3A, replicate values
Protocol: (§1) SA-β-Gal activity was measured following two different approaches. (i) AGS, MKN45 and PANC1 cells (5 × 10^4) were seeded in 24-multiwell dishes and incubated overnight. […] For flow cytometry cell senescence detection, cells were tripsinized, fixed for 15 min with PFA 4% and stained with the CellEvent Senescense Green Flow Cytometry Assay Kit (C10840, Invitrogen) according to manufacturer’s instructions. CellEvent Senescense Green Probe was used at a 1:500 dilution and fluorescence was detected using the filter (Ex488nm/Em530/30) BL1 with a 4-laser Attune NxT Acoustic Cytometer (Thermo Fisher Scientific). […] After 3 h, the treatments were removed, new supplemented medium was added, and cells were incubated for an additional 24 h. Finally, SA-β-Gal staining was performed using the Senescence Cells Histochemical Staining Kit (CS0030-1KT) according to the manufacturer’s instructions.

AGS cells [2] = assay: as above; format: cell-based, human; settings: Fig. 3A, replicate values
Protocol: as §1

PANC1 cells [3] = assay: as above; format: cell-based, human; settings: Fig. 3A, replicate values
Protocol: as §1

AGS cells [4] = assay: Immunofluorescence of γ-H2AX and 53BP1 foci; format: cell-based, human; settings: for foci/cell, share of cells in class (Suma 100) / foci/cell, number of cells in class: Fig. 3B; for foci/cell, number of cells in class: cell count
Protocol: (§2) Cells (7 × 10^4) were seeded on 20 mm coverslips. […] Coverslips were incubated for 1 h with the primary antibody (Cell Signaling: H2AX Ser139 (#2595) and 53BP1 (#4937)) at room temperature, followed by a 1 h incubation with the appropriate secondary antibody. DNA was stained with DAPI. Fluorescence microscopy was performed using a NIKON Eclipse 90i. The image analysis was performed using the software program Nikon NIS-Elements and Image J.

PANC1 cells [5] = assay: Immunofluorescence of γ-H2AX and 53BP1 foci; format: cell-based, human; settings: for foci/cell, share of cells in class (Suma 100) / foci/cell, number of cells in class: PANC1, Fig. 3B; for foci/cell, number of cells in class: cell count
Protocol: as §2

MKN45 cells [6] = assay: Cell viability, crystal violet staining; settings: MKN45 cells, dose 7.5 µM, without NAC, Fig. S6A
Protocol: Cell viability was assessed using a crystal violet-based staining method. […] The cells (2 × 10^5) were seeded in 24-multiwell dishes in 0.5 mL of complete medium and incubated overnight. […] After 48 h, cells were fixed with 1% glutaraldehyde (20–30 min), washed with distilled water, and stained with 0.1% crystal violet. […] IC50 were calculated by using GraphPad Prism (version 8.0). Nonlinear regression was used to fit the data to the log (inhibitor) versus response (variable slope).
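Throughout, for Fold change % Senescence: IC50 concentration of each compound relative to untreated control set as 1.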

SMILES: CC(C)[NH][Pt@SP1]([I])([I])[NH]C(C)C [I6, cis-[PtI2(isopropylamine)2]]
- Fold change % Senescence (MKN45 cells [1]): 5.26 fold change and 5.34 fold change and 6.2 fold change
- Fold change % Senescence (AGS cells [2]): 5.13 fold change and 5.74 fold change and 3.46 fold change
- Fold change % Senescence (PANC1 cells [3]): 3.99 fold change and 3.23 fold change and 3.43 fold change
- foci/cell, share of cells in class (Suma 100) (AGS cells [4]; class 16-30 foci/cell): 23.3831
- foci/cell, number of cells in class (AGS cells [4]; class 16-30 foci/cell): 47
- foci/cell, share of cells in class (Suma 100) (AGS cells [4]; class 31-45 foci/cell): 26.3682
- foci/cell, number of cells in class (AGS cells [4]; class 31-45 foci/cell): 53
- foci/cell, share of cells in class (Suma 100) (AGS cells [4]; class 46-60 foci/cell): 13.9303
- foci/cell, number of cells in class (AGS cells [4]; class 46-60 foci/cell): 28
- foci/cell, share of cells in class (Suma 100) (AGS cells [4]; class <15 foci/cell): 29.3532
- foci/cell, number of cells in class (AGS cells [4]; class <15 foci/cell): 59
- foci/cell, share of cells in class (Suma 100) (AGS cells [4]; class >61 foci/cell): 6.965
- foci/cell, number of cells in class (AGS cells [4]; class >61 foci/cell): 14
- foci/cell: number of cells with 16-30 foci (AGS cells [4]; Fig. S4B, cell counts): 54
- foci/cell: number of cells with 31-45 foci (AGS cells [4]; Fig. S4B, cell counts): 20
- foci/cell: number of cells with 46-60 foci (AGS cells [4]; Fig. S4B, cell counts): 3
- foci/cell: number of cells with <15 foci (AGS cells [4]; Fig. S4B, cell counts): 39
- foci/cell: number of cells with >61 foci (AGS cells [4]; Fig. S4B, cell counts): 4
- foci/cell: share of cells with 16-30 foci (Suma 100) (AGS cells [4]; Fig. S4B, share of N): 45
- foci/cell: share of cells with 31-45 foci (Suma 100) (AGS cells [4]; Fig. S4B, share of N): 16.6667
- foci/cell: share of cells with 46-60 foci (Suma 100) (AGS cells [4]; Fig. S4B, share of N): 2.5
- foci/cell: share of cells with <15 foci (Suma 100) (AGS cells [4]; Fig. S4B, share of N): 32.5
- foci/cell: share of cells with >61 foci (Suma 100) (AGS cells [4]; Fig. S4B, share of N): 3.333
- foci/cell: number of cells with 16-30 foci (PANC1 cells [5]; PANC1, Fig. S4B, cell counts): 43
- foci/cell: number of cells with 31-45 foci (PANC1 cells [5]; PANC1, Fig. S4B, cell counts): 7
- foci/cell: number of cells with 46-60 foci (PANC1 cells [5]; PANC1, Fig. S4B, cell counts): 2
- foci/cell: number of cells with <15 foci (PANC1 cells [5]; PANC1, Fig. S4B, cell counts): 39
- foci/cell: number of cells with >61 foci (PANC1 cells [5]; PANC1, Fig. S4B, cell counts): 5
- foci/cell: share of cells with 16-30 foci (Suma 100) (PANC1 cells [5]; PANC1, Fig. S4B, share of N): 44.7917
- foci/cell: share of cells with 31-45 foci (Suma 100) (PANC1 cells [5]; PANC1, Fig. S4B, share of N): 7.292
- foci/cell: share of cells with 46-60 foci (Suma 100) (PANC1 cells [5]; PANC1, Fig. S4B, share of N): 2.083
- foci/cell: share of cells with <15 foci (Suma 100) (PANC1 cells [5]; PANC1, Fig. S4B, share of N): 40.625
- foci/cell: share of cells with >61 foci (Suma 100) (PANC1 cells [5]; PANC1, Fig. S4B, share of N): 5.208
- foci/cell, share of cells in class (Suma 100) (PANC1 cells [5]; class 16-30 foci/cell): 41.9753
- foci/cell, number of cells in class (PANC1 cells [5]; class 16-30 foci/cell): 34
- foci/cell, share of cells in class (Suma 100) (PANC1 cells [5]; class 31-45 foci/cell): 18.5185
- foci/cell, number of cells in class (PANC1 cells [5]; class 31-45 foci/cell): 15
- foci/cell, share of cells in class (Suma 100) (PANC1 cells [5]; class 46-60 foci/cell): 6.173
- foci/cell, number of cells in class (PANC1 cells [5]; class 46-60 foci/cell): 5
- foci/cell, share of cells in class (Suma 100) (PANC1 cells [5]; class <15 foci/cell): 22.2222
- foci/cell, number of cells in class (PANC1 cells [5]; class <15 foci/cell): 18
- foci/cell, share of cells in class (Suma 100) (PANC1 cells [5]; class >61 foci/cell): 11.1111
- foci/cell, number of cells in class (PANC1 cells [5]; class >61 foci/cell): 9
- Cell Viability without NAC (MKN45 cells [6]): 99.1588 and 99.2583 and 108.83
